According to US8017611B2, “Pyridine and pyrazine derivatives -083” (AstraZeneca AB, priority 2007, dated 2011):
Marks after values point to notes of the source that are not given here.

Biological target: T1, recombinant Axl tyrosine kinase (Homo sapiens, UniProt P30530)
T1 construct: encompassing amino acids 473 to 894 of Axl; GST (N); made in house; host or cells: SF126 insect cells
T1 sequence (P30530 473-894): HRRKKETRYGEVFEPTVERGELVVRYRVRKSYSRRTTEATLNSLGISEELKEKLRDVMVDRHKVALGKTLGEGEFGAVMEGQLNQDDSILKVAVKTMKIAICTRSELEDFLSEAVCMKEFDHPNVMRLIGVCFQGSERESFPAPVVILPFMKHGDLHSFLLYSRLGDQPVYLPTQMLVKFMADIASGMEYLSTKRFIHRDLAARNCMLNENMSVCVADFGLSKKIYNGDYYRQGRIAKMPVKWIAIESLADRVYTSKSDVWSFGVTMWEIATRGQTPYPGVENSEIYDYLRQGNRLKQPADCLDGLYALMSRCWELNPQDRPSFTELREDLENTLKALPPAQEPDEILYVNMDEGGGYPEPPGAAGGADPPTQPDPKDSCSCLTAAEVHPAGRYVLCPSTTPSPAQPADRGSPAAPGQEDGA
Assay: In vitro Axl kinase assay (AlphaScreen), Test (a)
Assay type: biochemical
Settings: test compound at 1 μM; first value quoted

| % Axl tyrosine kinase inhibition at 1 μM concentration | Compound |
| --- | --- |
| 99.0% | Nc1ncc(-c2cccc(CN3CCCC3)c2)cc1-c1nc2ccccc2o1 [Example 2.6] |
| 99.5% | CN1CCC(n2cc(-c3cnc(N)c(-c4nc5ccccc5o4)c3)c(C(=O)N(C)C)n2)CC1 [Example 41.30] |
| 98.9% | CCN(CC)CCCOc1ccc(-c2cnc(N)c(-c3nc4ncccc4o3)c2)cc1 [Example 43B.20] |
| 99.5% | Nc1ncc(-c2cnn(C3CCNCC3)c2)cc1-c1nc2ccc(F)c(F)c2o1 [Example 38.1] |
| 99.2% | CC(C)N1CCC(n2cc(-c3cnc(N)c(-c4nc5ncccc5o4)c3)cn2)CC1 [Example 53.4] |
| 93.7% | Nc1ncc(-c2cccc(N3CCOCC3)c2)cc1-c1nc2ccncc2o1 [Example 11A.12] |
| 99.9% | CN1CCC(n2cc(-c3cnc(N)c(-c4nc5c(F)cc(F)cc5o4)c3)cn2)CC1 [Example 7.6] |
| 99.8% | CNCCN(C)C(=O)c1ccc(-c2cnc(N)c(-c3nc4cccnc4o3)c2)cc1 [Example 45A.85] |
| 98.8% | Nc1ncc(-c2ccc(C(=O)N3CCCCC3CCN3CCCC3)cc2)cc1-c1nc2cccnc2o1 (centres unmarked) [Example 45A.29] |
| 95.1% | CN1CCN(CCCOc2ccc(-c3cnc(N)c(-c4nc5ncccc5o4)c3)cc2)CC1 [Example 43B.14] |
| 96.4% | Nc1ncc(-c2ccc(C(=O)N3CCCCC3CN3CCOCC3)cc2)cc1-c1nc2cccnc2o1 (centres unmarked) [Example 45A.21] |
| 96.4% | Nc1ncc(-c2cnn(CCN3CCCC3)c2)cc1-c1nc2ccccc2o1 [Example 27.3] |
| 99.7% | CN1CC(n2cc(-c3cnc(N)c(-c4nc5ccccc5o4)c3)cn2)C1 [Example 41.8] |
| 99.9% | Nc1ncc(-c2cnn(C3CCNC3)c2)cc1-c1nc2ccccc2o1 (centres unmarked) [Example 29.3] |
| 96.6% | CN(C)CCCCNC(=O)c1ccc(-c2cnc(N)c(-c3nc4cccnc4o3)c2)cc1 [Example 45A.2] |
| 99.6% | CCN(CC)CCOc1ccc(-c2cnc(N)c(-c3nc4ncccc4o3)c2)cc1 [Example 43B.3] |
| 99.9% | CN1CCC(n2cc(-c3cnc(N)c(-c4nc5cc(F)ccc5o4)c3)cn2)CC1 [Example 7.1] |
| 75.2% | CN(C)CCNC(=O)c1cccc(-c2cnc(N)c(-c3nc4cccnc4o3)c2)c1 [Example 9A.5] |
| 81.9% | Nc1ncc(-c2cccc(C(=O)NCCN3CCOCC3)c2)cc1-c1nc2cccnc2o1 [Example 9A.22] |
| 96.7% | CN1CCC(NC(=O)c2ccc(-c3cnc(N)c(-c4nc5cccnc5o4)c3)cc2)CC1 [Example 45A.69] |
| 99.6% | Nc1ncc(-c2ccc(C(=O)NCCN3CCCCCC3)cc2)cc1-c1nc2cccnc2o1 [Example 45A.32] |
| 80.2% | COCc1cccc(-c2cnc(N)c(-c3nc4ccccc4o3)c2)c1 [Example 2.15] |
| 100.0% | CN1CCN(CCCn2cc(-c3cnc(N)c(-c4nc5ccccc5o4)c3)cn2)CC1 [Example 31.5] |
| 99.9% | Nc1ncc(-c2ccc(N3CCNCC3)cc2)cc1-c1nc2ccccc2o1 [Example 2.14] |
| 97.1% | Nc1ncc(-c2ccc(C(=O)N3CCC(O)CC3)cc2)cc1-c1nc2cnccc2o1 [Example 8A.8] |

| % Axl tyrosine kinase inhibition at 1 μM concentration | Compound |
| --- | --- |
| 99.6% | COc1cc(-c2cnc(N)c(-c3nc4ncccc4o3)c2)ccc1OC[C@H]1CCCN1 [Example 43C.24] |
| 99.8% | Nc1ncc(-c2cnn(CC3CCNCC3)c2)cc1-c1nc2ccccc2o1 [Example 29.7] |
| 13.1***** % | Cc1ccc(S(=O)(=O)N2CCOCC2)cc1-c1cnc(N)c(-c2nc3cnccc3o2)c1 [Example 8A.10] |
| 99.0% | COc1cc(N2CCNCC2)ccc1-c1cnc(N)c(-c2nc3ccccc3o2)c1 [Example 2.38] |
| 99.7% | Cc1nn(C2CCN(C)CC2)cc1-c1cnc(N)c(-c2nc3cccnc3o2)c1 [Example 41.20] |
| 87.7% | CC(C)(C)OC(=O)N1CCC(C(=O)Nc2cccc(-c3cnc(N)c(-c4nc5ccncc5o4)c3)c2)CC1 [Example 11A.3] |
| 98.6% | NCc1cccc(-c2cnc(N)c(-c3nc4cnccc4o3)c2)c1 [Example 8A.27] |
| 88.8% | COCCN1CCN(C(=O)c2ccc(-c3cnc(N)c(-c4nc5cccnc5o4)c3)cc2)CC1 [Example 45A.59] |
| 98.8% | CN1CCCC(COc2ccc(-c3cnc(N)c(-c4nc5ncccc5o4)c3)cc2)C1 (centres unmarked) [Example 43B.12] |
| 98.8% | CN(C)CCCNC(=O)c1ccc(-c2cnc(N)c(-c3nc4cccnc4o3)c2)cc1 [Example 9A.11] |
| 89.8% | N#Cc1cccc(-c2cnc(N)c(-c3nc4cccnc4o3)c2)c1 [Example 9A.1] |
| 97.7% | CCN(CC)C1CCN(C(=O)c2ccc(-c3cnc(N)c(-c4nc5cccnc5o4)c3)cc2)C1 (centres unmarked) [Example 45A.33] |
| 99.7% | CNC1CCN(C(=O)c2ccc(-c3cnc(N)c(-c4nc5cccnc5o4)c3)cc2)C1 (centres unmarked) [Example 45A.80] |
| 97.4% | Nc1ncc(-c2ccc(C(=O)NCCCN3CCCC3)cc2)cc1-c1nc2cccnc2o1 [Example 45A.6] |
| 99.1% | CC1CCN(CCCNC(=O)c2ccc(-c3cnc(N)c(-c4nc5cccnc5o4)c3)cc2)CC1 [Example 45A.46] |
| 98.4% | Nc1ncc(-c2ccc(C(=O)N3CCCNCC3)cc2)cc1-c1nc2cccnc2o1 [Example 45A.82] |
| 100.0% | COCc1nn(C2CCNCC2)cc1-c1cnc(N)c(-c2nc3c(F)cccc3o2)c1 [Example 62.7] |
| 100.0% | N#Cc1nn(C2CCNCC2)cc1-c1cnc(N)c(-c2nc3ccccc3o2)c1 [Example 62.1] |
| 9.8*** % | Nc1ncc(-c2cccc3ccccc23)cc1-c1nc2ccccc2o1 [Example 2.43] |
| 95.9% | Nc1ncc(-c2ccc(OCCC3CCNCC3)cc2)cc1-c1nc2ncccc2o1 [Example 43B.35] |
| 90.1% | Nc1ncc(-c2ccc(CO)s2)cc1-c1nc2ncccc2o1 [Example 10A.19] |
| 98.7% | Nc1ncc(-c2ccc(OCCN3CCCC3)cc2)cc1-c1nc2cccnc2o1 [Example 43A.3] |
| 99.8% | COc1cc(-c2cnc(N)c(-c3nc4ncccc4o3)c2)ccc1OC[C@@H]1CCCN1C [Example 43C.6] |
| 99.8% | CN1CCC(n2cc(-c3cnc(N)c(-c4nc5ncccc5o4)c3)cn2)CC1 [Example 41.4] |
| 98.1% | Nc1ncc(-c2ccc(OC3CCNCC3)cc2)cc1-c1nc2ncccc2o1 [Example 43B.33] |

| Compound | % Axl tyrosine kinase inhibition at 1 μM concentration |
| --- | --- |
| CNC(=O)c1cccc(-c2cnc(N)c(-c3nc4ccccc4o3)c2)c1 [Example 2.17] | 68.9% |
| COc1cc(-c2cnc(N)c(-c3nc4ncccc4o3)c2)ccc1OC1CC2CCC(C1)N2C (centres unmarked) [Example 43C.19] | 99.7% |

Same assay, conditions: test compound at 1 μM; first value quoted; read-out: % Axl tyrosine kinase inhibition at 1 μM concentration

| inhibition at 1 µM [%] | Compound |
| --- | --- |
| 99.6 | CN(C)CCNC(=O)c1ccc(-c2cnc(N)c(-c3nc4cccnc4o3)c2)cc1 [Example 44, 4-(6-amino-5-(oxazolo[5,4-b]pyridin-2-yl)pyridin-3-yl)-N-(2-(dimethylamino)ethyl)benzamide] |
| 99.1 | CN1CCC(n2cc(-c3cnc(N)c(-c4nc5cccc(C#N)c5o4)c3)cn2)CC1 [Example 64, 2-[2-amino-5-[1-(1-methyl-4-piperidyl)pyrazol-4-yl]-3-pyridyl]-1,3-benzoxazole-7-carbonitrile] |
| 47.6 | Nc1ncc(-c2cccc(CC(=O)O)c2)nc1-c1nc2ccc(F)cc2o1 [Example 50, 2-[3-[5-amino-6-(6-fluoro-1,3-benzoxazol-2-yl)pyrazin-2-yl]phenyl]acetic acid] |
| 99.3 | COCC(=O)N1CCC(n2cc(-c3cnc(N)c(-c4nc5ncccc5o4)c3)cn2)CC1 [Example 56, 1-[4-[4-(6-amino-5-oxazolo[4,5-b]pyridin-2-yl-3-pyridyl)pyrazol-1-yl]-1-piperidyl]-2-methoxy-ethanone] |
| 100 | Nc1ncc(-c2cn(C3CCNCC3)nc2CO)cc1-c1nc2ccccc2o1 [Example 25.13, [4-[6-amino-5-(1,3-benzoxazol-2-yl)-3-pyridyl]-1-(4-piperidyl)pyrazol-3-yl]methanol] |

Same assay, conditions: test compound at 30 μM

| Compound | % of Axl tyrosine kinase activity inhibited at a concentration of 30 μM |
| --- | --- |
| Cc1ccc(S(=O)(=O)N2CCOCC2)cc1-c1cnc(N)c(-c2nc3cnccc3o2)c1 [Example 8A.10] | *****the compound disclosed in Example 8A.10 inhibited 79.5% of Axl tyrosine kinase activity at a concentration of 30 μM. |
| Nc1ncc(-c2cccc3ccccc23)cc1-c1nc2ccccc2o1 [Example 2.43] | ***the compound disclosed in Example 2.43 inhibited 57% of Axl tyrosine kinase activity at a concentration of 30 μM. |
